# Molecular target: T1, SRC (Homo sapiens, UniProt P12931)
# T1 construct: purchased Carna Biosciences
# Assay: In vitro kinase assay, SRC (Caliper EZ Reader conversion)
# Type: biochemical
# Details: read-out: SRC IC50
# Experimental: (§1) The effect of the compounds on the activity of SRC and PAK1 kinase were assessed. SRC and PAK1 kinase enzymes were obtained from Carna Biosciences.
# Test compounds were dissolved in 100% DMSO to prepare a 20 mM stock. Compounds were stored in −20° C. and protected from light. […] Saracatinib was used as a positive control for the SRC assay, and FRAX597 was used as a positive control for the PAK1 assay. For the positive controls, a 3-fold serial dilution was made to achieve a total of 10 concentrations. 10 μL 1× Kinase buffer was used as the negative control.
# First, 250 nL of the compounds at each dilution were transferred into wells of a 384-well plate. […] Then, 10 μL of enzyme mix was added to the 384-well plate, and the enzymes and compounds were pre-incubated at room temperature for 10 minutes. […] Then, 15 μL of substrate mix was added to a 384-well plate and reacted at room temperature for 30 min and 60 min. The reaction was stopped by adding 30 μL of the stop buffer, and the conversion rate was read using a Caliper EZ Reader.
# (§2) Percent inhibition is calculated according to the following equation: […]
# (§3) wherein “Conversion %_sample” is the conversion percentage value of the sample; “Conversion %_min” is the average conversion percentage value of the negative control; and “Conversion %_max” is the average conversion percentage value of the positive control.
# (§4) The dose-response curve was fitted using GraphPad Prism software (version 5, […]), and the IC50 values for each compounds were calculated by log(inhibitor) vs. response using a variable slope program with the following formula:
# (§5) Y=Bottom+(Top-Bottom)/(1+10^((Log IC50−X)*HillSlope))
# T1 sequence (P12931 whole entry): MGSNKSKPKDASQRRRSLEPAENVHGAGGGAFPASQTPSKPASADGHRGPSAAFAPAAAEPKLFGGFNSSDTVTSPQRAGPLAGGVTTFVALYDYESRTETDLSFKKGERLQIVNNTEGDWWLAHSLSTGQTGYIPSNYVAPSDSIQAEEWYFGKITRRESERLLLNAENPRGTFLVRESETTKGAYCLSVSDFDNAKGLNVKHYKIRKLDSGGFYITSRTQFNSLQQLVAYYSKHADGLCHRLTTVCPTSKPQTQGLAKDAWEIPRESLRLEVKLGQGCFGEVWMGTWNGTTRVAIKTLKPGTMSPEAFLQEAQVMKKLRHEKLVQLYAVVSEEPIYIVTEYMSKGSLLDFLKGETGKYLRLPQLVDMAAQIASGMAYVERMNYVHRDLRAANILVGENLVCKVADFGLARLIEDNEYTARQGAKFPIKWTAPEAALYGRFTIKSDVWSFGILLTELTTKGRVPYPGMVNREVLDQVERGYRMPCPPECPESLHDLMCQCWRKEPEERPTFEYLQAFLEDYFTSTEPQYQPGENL
row,SMILES,IC50
1,"COc1nc(N2CCNCC2)ccc1Nc1ncc2c(n1)N1CCN=C1C(c1ccncc1)=C2 [Compound 41, N-(2-methoxy-6-(piperazin-1-yl)pyridin-3-yl)-6-(pyridin-4-yl)-8,9-dihydroimidazo[1′,2′:1,6]pyrido[2,3-d]pyrimidin-2-amine]",> 10 µM
2,"Fc1ccccc1Nc1ncc2c(n1)N1CCCN=C1C(c1ccccc1)=C2 [Compound 56, N-(2-fluorophenyl)-6-phenyl-9,10-dihydro-8H-pyrido[1,6-a:2,3-d′]dipyrimidin-2-amine]",> 10 µM
3,"CN1CCN(c2ccc(Nc3ncc4c(n3)N3CCN=C3C(c3ccc(Cl)cc3Cl)=C4)c(F)c2)CC1 [Compound 8, 6-(2,4-dichlorophenyl)-N-(2-fluoro-4-(4-methylpiperazin-1-yl)phenyl)-8,9-dihydroimidazo[1′,2′:1,6]pyrido[2,3-d]pyrimidin-2-amine]",< 0.1 µM
4,"Fc1cc(N2CCNCC2)ccc1Nc1ncc2c(n1)N1CCN=C1C=C2 [Compound 10, N-(2-fluoro-4-(piperazin-1-yl)phenyl)-8,9-dihydroimidazo[1′,2′:1,6]pyrido[2,3-d]pyrimidin-2-amine]",> 10 µM
5,"C1=C(c2ccccc2)C2=NCCCN2c2nc(Nc3ccncc3)ncc21 [Compound 53, 6-phenyl-N-(pyridin-4-yl)-9,10-dihydro-8H-pyrido[1,6-a:2,3-d′]dipyrimidin-2-amine]",> 10 µM
6,"Fc1cnccc1Nc1ncc2c(n1)N1CCCN=C1C(c1ccccc1)=C2 [Compound 55, N-(3-fluoropyridin-4-yl)-6-phenyl-9,10-dihydro-8H-pyrido[1,6-a:2,3-d′]dipyrimidin-2-amine]",> 10 µM
7,"COc1ccccc1Nc1ncc2c(n1)N1CCCN=C1C(c1ccccc1Cl)=C2 [Compound 61, 6-(2-chlorophenyl)-N-(2-methoxyphenyl)-9,10-dihydro-8H-pyrido[1,6-a:2,3-d′]dipyrimidin-2-amine]",0.1 to 10 µM
8,"Clc1cccc(Cl)c1C1=Cc2cnc(N3CCN(c4ccncc4)CC3)nc2N2CCN=C12 [Compound 51, 6-(2,6-dichlorophenyl)-2-(4-(pyridin-4-yl)piperazin-1-yl)-8,9-dihydroimidazo[1′,2′:1,6]pyrido[2,3-d]pyrimidine]",0.1 to 10 µM
9,"CCN1CCN(c2ccc(Nc3ncc4c(n3)N3CCN=C3C(c3ccc(Cl)cc3Cl)=C4)c(F)c2)CC1 [Compound 9, 6-(2,4-dichlorophenyl)-N-(4-(4-ethylpiperazin-1-yl)-2-fluorophenyl)-8,9-dihydroimidazo[1′,2′:1,6]pyrido[2,3-d]pyrimidin-2-amine]",< 0.1 µM
10,"COc1cccc(Nc2ncc3c(n2)N2CCCN=C2C(c2ccccc2Cl)=C3)c1 [Compound 60, 6-(2-chlorophenyl)-N-(3-methoxyphenyl)-9,10-dihydro-8H-pyrido[1,6-a:2,3-d′]dipyrimidin-2-amine]",0.1 to 10 µM
11,"Clc1ccccc1C1=Cc2cnc(Nc3ccncc3)nc2N2CCCN=C12 [Compound 54, 6-(2-chlorophenyl)-N-(pyridin-4-yl)-9,10-dihydro-8H-pyrido[1,6-a:2,3-d′]dipyrimidin-2-amine]",> 10 µM

# Further lines, results first:
row,IC50,SMILES
1,0.1 to 10 µM,"CCNc1ncc2c(n1)N1CCCN=C1C(c1c(C)ccc3[nH]ncc13)=C2 [Compound 66, N-ethyl-6-(5-methyl-1H-indazol-4-yl)-9,10-dihydro-8H-pyrido[1,6-a:2,3-d′]dipyrimidin-2-amine]"
2,> 10 µM,"Oc1ccncc1Nc1ncc2c(n1)N1CCCN=C1C(c1ccccc1Cl)=C2 [Compound 67, 3-((6-(2-chlorophenyl)-9,10-dihydro-8H-pyrido[1,6-a:2,3-d′]dipyrimidin-2-yl)amino)pyridin-4-ol]"
3,0.1 to 10 µM,"Cc1ccc(NC(=O)c2cc(C(F)(F)F)ccn2)cc1C1=Cc2cnc(N)nc2N2CCCN=C12 [Compound 76, N-(3-(2-amino-9,10-dihydro-8H-pyrido[1,6-a:2,3-d′]dipyrimidin-6-yl)-4-methylphenyl)-4-(trifluoromethyl)picolinamide]"

# Molecular target: PAK1 (Homo sapiens, UniProt Q13153)
# Assay: In vitro kinase assay, PAK1 (Caliper EZ Reader conversion)
# Type: biochemical
# Parameters: purchased Carna Biosciences
# Details: not given
# Experimental: as §1
# Test compounds were dissolved in 100% DMSO to prepare a 20 mM stock. Compounds were stored in −20° C. and protected from light. A 100×solution of the compounds were prepared, from which 4-fold serial dilutions was made to achieve a total of 6 concentrations. Saracatinib was used as a positive control for the SRC assay, and FRAX597 was used as a positive control for the PAK1 assay. For the positive controls, a 3-fold serial dilution was made to achieve a total of 10 concentrations. 10 μL 1× Kinase buffer was used as the negative control.
# First, 250 nL of the compounds at each dilution were transferred into wells of a 384-well plate. The PAK1 and SRC kinases were diluted to a 2.5×final concentration with 1×Kinase buffer. Then, 10 μL of enzyme mix was added to the 384-well plate, and the enzymes and compounds were pre-incubated at room temperature for 10 minutes. […] Then, 15 μL of substrate mix was added to a 384-well plate and reacted at room temperature for 30 min and 60 min. The reaction was stopped by adding 30 μL of the stop buffer, and the conversion rate was read using a Caliper EZ Reader.
# as §2, §3, §4, §5
# Sequence of PAK1 (Q13153 whole entry): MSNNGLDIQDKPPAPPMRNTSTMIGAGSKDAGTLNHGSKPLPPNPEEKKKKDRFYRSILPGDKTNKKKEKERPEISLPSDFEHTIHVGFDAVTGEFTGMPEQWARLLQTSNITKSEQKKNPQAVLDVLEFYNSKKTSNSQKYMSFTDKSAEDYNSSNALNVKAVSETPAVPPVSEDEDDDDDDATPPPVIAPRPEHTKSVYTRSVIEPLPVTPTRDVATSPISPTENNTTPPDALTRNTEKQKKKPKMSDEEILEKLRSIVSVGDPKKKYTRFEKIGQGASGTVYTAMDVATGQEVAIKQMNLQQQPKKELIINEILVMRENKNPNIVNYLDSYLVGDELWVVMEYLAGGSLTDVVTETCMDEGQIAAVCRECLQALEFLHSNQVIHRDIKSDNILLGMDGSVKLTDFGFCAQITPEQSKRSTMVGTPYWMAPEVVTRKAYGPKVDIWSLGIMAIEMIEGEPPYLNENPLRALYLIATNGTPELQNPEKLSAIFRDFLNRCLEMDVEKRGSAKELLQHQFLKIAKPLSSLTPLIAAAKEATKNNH
row,IC50,SMILES
1,> 10 µM,"Fc1cc(N2CCNCC2)ccc1Nc1ncc2c(n1)N1CCN=C1C(c1ccncc1)=C2 [Compound 34, N-(2-fluoro-4-(piperazin-1-yl)phenyl)-6-(pyridin-4-yl)-8,9-dihydroimidazo[1′,2′:1,6]pyrido[2,3-d]pyrimidin-2-amine]"
2,> 10 µM,"COc1nc(N2CCNCC2)ccc1Nc1ncc2c(n1)N1CCN=C1C(c1ccccc1)=C2 [Compound 37, N-(2-methoxy-6-(piperazin-1-yl)pyridin-3-yl)-6-phenyl-8,9-dihydroimidazo[1′,2′:1,6]pyrido[2,3-d]pyrimidin-2-amine]"
3,> 10 µM,"Fc1cc(N2CCNCC2)ccc1Nc1ncc2c(n1)N1CCN=C1C(c1ccccn1)=C2 [Compound 32, N-(2-fluoro-4-(piperazin-1-yl)phenyl)-6-(pyridin-2-yl)-8,9-dihydroimidazo[1′,2′:1,6]pyrido[2,3-d]pyrimidin-2-amine]"
4,0.1 to 10 µM,"Clc1ccccc1C1=Cc2cnc(Nc3ccc(N4CCOCC4)cc3)nc2N2CCN=C12 [Compound 89, 6-(2-chlorophenyl)-N-(4-morpholinophenyl)-8,9-dihydroimidazo[1′,2′:1,6]pyrido[2,3-d]pyrimidin-2-amine]"
5,< 0.1 µM,"CN1CCN(c2ccc(Nc3ncc4c(n3)N3CCN=C3C(c3ccc(Cl)cc3Cl)=C4)cc2F)CC1 [Compound 2, 6-(2,4-dichlorophenyl)-N-(3-fluoro-4-(4-methylpiperazin-1-yl)phenyl)-8,9-dihydroimidazo[1′,2′:1,6]pyrido[2,3-d]pyrimidin-2-amine]"
6,0.1 to 10 µM,"Fc1cc(N2CCNCC2)ccc1Nc1ncc2c(n1)N1CCN=C1C(c1cscn1)=C2 [Compound 33, N-(2-fluoro-4-(piperazin-1-yl)phenyl)-6-(thiazol-4-yl)-8,9-dihydroimidazo[1′,2′:1,6]pyrido[2,3-d]pyrimidin-2-amine]"
7,> 10 µM,"COc1nc(N2CCNCC2)ccc1Nc1ncc2c(n1)N1CCN=C1C(c1ccc(C)cc1)=C2 [Compound 38, N-(2-methoxy-6-(piperazin-1-yl)pyridin-3-yl)-6-(p-tolyl)-8,9-dihydroimidazo[1′,2′:1,6]pyrido[2,3-d]pyrimidin-2-amine]"

# Molecular target: HPK1 (MAP4K1) (Homo sapiens, UniProt Q92918)
# Assay: HPK1 (MAP4K1) kinase Lantha screen assay
# Type: biochemical
# Details: not given
# Summary of the method: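 Recombinant MAP4K1 preincubated 10 min with compound (6-point dilution, duplicates) in 50 mM HEPES pH 7.5, 10 mM MgCl2, then reacted with Fluorescein-PKC substrate and ATP for 90 min at room temperature. Antibody detection solution stopped reaction; after 60 min, TR-FRET read at ex 340 nm, em 520/495 nm.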
# Sequence of HPK1 (MAP4K1) (Q92918 whole entry, species assumed): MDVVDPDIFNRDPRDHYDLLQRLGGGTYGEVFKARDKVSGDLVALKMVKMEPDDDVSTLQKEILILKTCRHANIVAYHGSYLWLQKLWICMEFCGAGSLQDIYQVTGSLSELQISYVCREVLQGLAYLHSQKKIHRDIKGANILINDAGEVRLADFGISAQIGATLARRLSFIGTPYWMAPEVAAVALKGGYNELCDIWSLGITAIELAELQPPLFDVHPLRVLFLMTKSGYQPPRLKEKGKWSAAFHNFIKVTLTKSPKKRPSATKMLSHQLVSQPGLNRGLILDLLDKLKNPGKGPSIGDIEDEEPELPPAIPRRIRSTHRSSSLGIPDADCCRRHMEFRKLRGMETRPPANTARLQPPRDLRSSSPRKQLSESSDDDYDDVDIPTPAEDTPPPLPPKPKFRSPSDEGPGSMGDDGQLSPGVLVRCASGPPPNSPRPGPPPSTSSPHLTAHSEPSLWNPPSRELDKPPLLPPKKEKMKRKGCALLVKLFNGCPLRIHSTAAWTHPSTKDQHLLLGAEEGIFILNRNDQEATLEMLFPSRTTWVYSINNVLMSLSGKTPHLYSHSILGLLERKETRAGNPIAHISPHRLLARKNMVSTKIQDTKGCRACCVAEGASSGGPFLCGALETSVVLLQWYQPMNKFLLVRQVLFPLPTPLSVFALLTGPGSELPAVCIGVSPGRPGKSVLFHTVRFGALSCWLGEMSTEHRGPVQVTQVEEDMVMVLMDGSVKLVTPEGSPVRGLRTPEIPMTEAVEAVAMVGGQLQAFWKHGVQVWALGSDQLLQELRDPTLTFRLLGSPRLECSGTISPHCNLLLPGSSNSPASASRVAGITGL
row,IC50,SMILES
1,0.1 to 10 µM,"COCCNc1ncc2c(n1)N1CCN=C1C(c1cc(NC(=O)c3cc(C(F)(F)F)ccn3)ccc1C)=C2 [Compound 112, N-(3-(2-((2-methoxyethyl)amino)-8,9-dihydroimidazo[1′,2′:1,6]pyrido[2,3-d]pyrimidin-6-yl)-4-methylphenyl)-4-(trifluoromethyl)picolinamide]"
2,> 10 µM,"CNc1ncc2c(n1)N1CCN=C1C(c1cc(NC(=O)c3cncc(C(F)(F)F)n3)ccc1C)=C2 [Compound 146, N-(4-methyl-3-(2-(methylamino)-8,9-dihydroimidazo[1′,2′:1,6]pyrido[2,3-d]pyrimidin-6-yl)phenyl)-6-(trifluoromethyl)pyrazine-2-carboxamide]"
3,> 10 µM,"CNc1ncc2c(n1)N1CCN=C1C(c1cc(NC(=O)c3cnnc(C(F)(F)F)c3)ccc1C)=C2 [Compound 150, N-(4-methyl-3-(2-(methylamino)-8,9-dihydroimidazo[1′,2′:1,6]pyrido[2,3-d]pyrimidin-6-yl)phenyl)-6-(trifluoromethyl)pyridazine-4-carboxamide]"
4,< 0.1 µM,"Cc1ccncc1Nc1ncc2c(n1)N1CCN=C1C(c1cc(NC(=O)c3cc(C(F)(F)F)ccn3)ccc1C)=C2 [Compound 210, N-(4-methyl-3-(2-((4-methylpyridin-3-yl)amino)-8,9-dihydroimidazo[1′,2′:1,6]pyrido[2,3-d]pyrimidin-6-yl)phenyl)-4-(trifluoromethyl)picolinamide]"
